Experimental data taken from PubChem BioAssay (NCI).
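48-hour exposure; five concentrations; linearly interpolated endpoints. GI50: concentration for 50% inhibition of growth. Definition used: TGI = concentration required for complete inhibition of growth.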

What was measured:
Test in all cases: NCI tumour cell line growth inhibition, 48 h
M14 melanoma = test system: M14 melanoma
SK-MEL-28 melanoma = test system: SK-MEL-28 melanoma
EKVX NSCLC = test system: EKVX NSCLC
HT29 colon = test system: HT29 colon
OVCAR-8 ovarian = test system: OVCAR-8 ovarian
A549 NSCLC = test system: A549 NSCLC
NCI-H23 lung = test system: NCI-H23 lung
HCT-15 colon = test system: HCT-15 colon
A498 renal = test system: A498 renal
LOX IMVI melanoma = test system: LOX IMVI melanoma

Compound | GI50 (M14 melanoma) [µM] | TGI (M14 melanoma) [µM] | GI50 (SK-MEL-28 melanoma) [µM] | TGI (SK-MEL-28 melanoma) [µM] | GI50 (EKVX NSCLC) [µM] | TGI (EKVX NSCLC) [µM] | GI50 (HT29 colon) [µM] | TGI (HT29 colon) [µM] | GI50 (OVCAR-8 ovarian) [µM] | TGI (OVCAR-8 ovarian) [µM] | GI50 (A549 NSCLC) [µM] | TGI (A549 NSCLC) [µM] | GI50 (NCI-H23 lung) [µM] | TGI (NCI-H23 lung) [µM] | GI50 (HCT-15 colon) [µM] | TGI (HCT-15 colon) [µM] | GI50 (A498 renal) [µM] | TGI (A498 renal) [µM] | GI50 (LOX IMVI melanoma) [µM] | TGI (LOX IMVI melanoma) [µM]
COC(=O)[C@@H](C)C[C@H](Cc1ccccc1)NC(=O)c1csc([C@@H](C[C@H](C(C)C)N(C)C(=O)[C@@H](NC(=O)[C@H]2CCCCN2C)C(C(F)(F)F)C(F)(F)F)OC(C)=O)n1 | 0.0333 | 0.115 | 0.102 | > 16.7 | 0.102 | > 16.7 | 0.0495 | 0.256 | 0.0927 | > 16.7 | 0.114 | > 16.7 | 0.0624 | > 16.7 | 0.0645 | > 16.7 | 0.0829 | > 16.7 | 0.053 | > 16.7
Nc1ccn(C2CC3OCC3O2)c(=O)n1 (configuration not stated) |  | > 100 |  | > 100 |  | > 100 |  | > 100 |  | > 100 |  | > 100 |  | > 100 |  | > 100 |  | > 100 |  | > 100
CC(CC(=O)Nc1ccc(NC(=O)CC(C)N=NC(N)=O)cc1)N=NC(N)=O (configuration not stated) |  | > 100 |  | > 100 |  | > 100 |  | > 100 |  | > 100 |  | > 100 |  | > 100 |  | 33.6 |  | > 100 |  | 79.8
CCCCCC/C(CC(=O)CCC(=O)NCCc1ccccc1)=N\Nc1ccc([N+](=O)[O-])cc1[N+](=O)[O-] |  | > 100 |  | > 100 |  | > 100 |  | > 100 |  | > 100 |  | > 100 |  | > 100 |  | > 100 |  | > 100 |  | > 100
O=C(CCc1cc(-c2ccc(F)cc2)n[nH]1)N(Cc1ccccc1)Cc1ccccc1 |  | > 100 |  | > 100 |  | > 100 |  | > 100 |  | > 100 |  | > 100 |  | > 100 |  | > 100 |  | > 100 |  | > 100
COc1ccc(/C=C2/CSC/C(=C/c3ccc(OC)c(OC)c3)C2=O)cc1OC |  | 10.5 |  | 9.76 |  | 42.8 |  | 2.7 |  | 2.19 |  | 8.39 |  | 6.13 |  | 3.46 |  | 15.3 |  | 2.62
COc1cc2c(=O)n(CC3CCCCC3)c3c4cc[nH]c4ncc3c2cc1OC | 4.3 | > 50 | 7.25 | 31.2 | 5.52 | > 50 | 2.85 | 15.2 | 5 | > 50 | 5 | 16.9 | 6.66 | > 50 | 1.69 | > 50 | 0.086 | 3.06 | 2.3 | 14.3
CN(C)CCOc1ccc2c(c1)C(=O)/C(=C\c1ncc([N+](=O)[O-])n1C)C2 | 0.543 | 1.83 | 0.922 | 2.79 | 0.711 | 3.83 | 0.346 | 2.25 | 0.95 | > 20.5 | 0.37 | 5.14 | 0.258 | 1.3 | 0.311 | 7.39 | 0.307 | 0.931 | 0.331 | 1.85
NC(=O)c1nc(-c2ccc(Cl)c(Cl)c2)nc2ccccc12 |  | > 100 |  | > 40.9 |  | > 100 |  | > 100 |  | > 21.8 |  | > 100 |  | > 100 |  | > 100 |  | > 100 |  | > 100
Oc1ccc(O)c(-n2cccn2)c1-n1cccn1 |  | > 100 |  | > 100 |  | > 100 |  | > 100 |  | > 100 |  | > 100 |  | > 100 |  | > 100 |  | > 100 |  | > 100
Cc1cc2nc(-c3ccc(O)c(O)c3)n(Cc3ccc(O)c(O)c3)c2cc1C | 39.2 | > 100 | 87.6 | > 100 | 79.9 | > 100 | 45.1 | > 100 | 26.4 | > 100 | 40.2 | > 100 | 35.1 | > 100 | 7.1 | 35.8 | 77.2 | > 100 | 13.1 | 28.4
COC(=O)C(/C(=N\O)C(=O)Nc1ccc(Br)cc1)c1nc2ccccc2[nH]c1=O (configuration not stated) |  | > 100 |  | > 100 |  | > 100 |  | > 100 |  | > 100 |  | > 100 |  | > 100 |  | > 100 |  | > 100 |  | 41.6
CS(=O)(=O)CCNCc1ccoc1-c1ccc2ncnc(Nc3ccc(OCc4ccccc4)cc3)c2c1 | > 25 | > 25 | > 25 | > 25 | 1.03 | > 25 | 9.55 | > 25 | > 25 | > 25 | > 25 | > 25 | > 25 | > 25 | > 25 | > 25 | 20.5 | > 25 | > 25 | > 25
COc1cc([C@@H]2c3cc4c(cc3[C@@H](NCc3cccc(F)c3)C3COC(=O)[C@@H]32)OCO4)cc(OC)c1O (some centres not stated) |  | 40.3 |  | 45.9 |  | 38 |  | 29.5 |  | 25.3 |  | 10.9 |  | 7.89 |  | 20.5 |  | 13.1 |  | 16.3
CCN(CC)CCNc1ccc([N+](=O)[O-])c2nc3ccc(OC)cc3c(N)c12 |  | 2.97 |  | 3.37 |  | 3.28 |  | 1.42 |  | 3.45 |  | 2.79 |  | 3.53 |  | 2.68 |  | 3.08 |  | 0.344
COc1ccc(/C=C/C(=O)c2ccc(Nc3nc(Nc4ccc(F)cc4)nc(Nc4ccc(F)cc4)n3)cc2)cc1 | 12.3 | 36.7 | 56.8 | > 100 | 23.9 | > 100 | 18.1 | > 100 | 8.49 | 30.1 | 10.1 | 34 | 14.4 | 32.5 | 14.4 | > 100 | 11.8 | 28.2 | 21.7 | 67.7
CCC(C)N1CN(c2ccccc2)C2(CCN(CCCC3(c4ccc(F)cc4)OCCO3)CC2)C1=O (configuration not stated) |  | > 35.7 |  | 34.4 |  | 17.6 |  | > 37.5 |  | 20.6 |  | 23.2 |  | 18.1 |  | 10.8 |  | 37 |  | 21.6
CC/C(C)=C1\CCC(CN(C)C)C1=O (configuration not stated) |  | 33.6 |  | 38.6 |  | 44 |  | 46.5 |  | 76.1 |  | 49.2 |  | 42.9 |  | 29.2 |  | 37.5 |  | 40.7
Cc1nc(-n2nc(-c3ccccc3)cc2-c2ccccc2)sc1C(=O)/C=C/c1cccc([N+](=O)[O-])c1 |  |  |  | 34.1 |  | > 100 |  | 28.1 |  | > 100 |  | 55.6 |  | 41.8 |  | > 100 |  | 51.9 |  | 36.6
COC(=O)c1cc(C)[nH]c2c(C)cc3nc4ccccc4c3c12 | 11 | 23.7 | 14.6 | 28.3 | 6.5 | 20.5 | 3.11 | 13.5 | 6.35 | 19 | 10.2 | 22.8 | 7.54 | 26.4 | 5.19 | 22.2 | 6.07 | 21.2 | 5.38 | 32.2
Cc1ccc(C)c(NC(=O)C(=O)Nn2c(=S)[nH]c3ccccc3c2=O)c1 |  | > 100 |  | > 100 |  | > 100 |  | > 100 |  | > 100 |  | > 100 |  | > 100 |  | > 100 |  | > 100 |  | > 100
C[C@H]1CC[C@@H]2[C@@H](C)[C@H]3[C@H](C[C@H]4[C@@H]5CC=C6C[C@@H](O)CC[C@]6(C)[C@H]5CC[C@]34C)N2C1 |  | > 100 |  | > 100 |  | > 100 |  | 43 |  | > 100 |  | > 100 |  | > 100 |  | > 100 |  | 41.7 |  | > 100
CN(C)C(=S)/N=c1\ss/c(=N\S(=O)(=O)c2ccccc2)n1C |  | > 100 |  | > 100 |  | > 100 |  | > 100 |  | > 100 |  | > 100 |  | > 100 |  | > 100 |  | > 100 |  | > 100
CC(=O)OC1=C(CC(C)(C)C)C(=O)c2ccccc2C1=O |  | > 100 |  | > 100 |  | > 100 |  | > 100 |  | > 100 |  |  |  | 38.8 |  | > 100 |  | 48.3 |  | > 100
Cc1ccc([N+]2=NC(c3ccccc3)=NN(c3ccccc3)C2)cc1 |  |  |  | > 100 |  | > 100 |  | > 100 |  | > 100 |  | > 100 |  | > 100 |  | > 100 |  | > 100 |  | > 100
